Some results are limits rather than exact numbers.

By EC50 is commonly meant the concentration at which the effect is half-maximal.

This experiment addresses T1, T1R umami taste receptor (Homo sapiens, UniProt Q7RTX0+Q7RTX1).
T1 sequence (Q7RTX1 21-841): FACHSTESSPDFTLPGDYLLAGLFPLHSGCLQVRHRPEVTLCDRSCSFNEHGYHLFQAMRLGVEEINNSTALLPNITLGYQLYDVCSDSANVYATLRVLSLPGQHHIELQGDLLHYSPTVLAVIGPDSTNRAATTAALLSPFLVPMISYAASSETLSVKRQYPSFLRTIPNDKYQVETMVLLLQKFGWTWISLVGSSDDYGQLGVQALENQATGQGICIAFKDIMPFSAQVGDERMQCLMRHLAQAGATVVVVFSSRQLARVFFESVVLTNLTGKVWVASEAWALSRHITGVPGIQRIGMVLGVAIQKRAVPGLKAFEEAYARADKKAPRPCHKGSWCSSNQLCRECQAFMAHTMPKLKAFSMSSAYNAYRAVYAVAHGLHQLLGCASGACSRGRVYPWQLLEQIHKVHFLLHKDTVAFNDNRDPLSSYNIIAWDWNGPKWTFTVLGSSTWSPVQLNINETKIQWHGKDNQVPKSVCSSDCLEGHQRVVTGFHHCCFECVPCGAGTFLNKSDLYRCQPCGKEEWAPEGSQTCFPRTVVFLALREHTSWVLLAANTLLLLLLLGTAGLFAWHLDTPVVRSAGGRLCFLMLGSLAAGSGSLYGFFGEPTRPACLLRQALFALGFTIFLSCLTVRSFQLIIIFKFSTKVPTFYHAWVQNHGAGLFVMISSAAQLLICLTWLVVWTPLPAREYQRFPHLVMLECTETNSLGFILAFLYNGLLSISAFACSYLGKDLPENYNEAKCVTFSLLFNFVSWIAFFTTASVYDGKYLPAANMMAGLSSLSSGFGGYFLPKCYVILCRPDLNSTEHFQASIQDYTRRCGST
T1 sequence (Q7RTX0 21-852): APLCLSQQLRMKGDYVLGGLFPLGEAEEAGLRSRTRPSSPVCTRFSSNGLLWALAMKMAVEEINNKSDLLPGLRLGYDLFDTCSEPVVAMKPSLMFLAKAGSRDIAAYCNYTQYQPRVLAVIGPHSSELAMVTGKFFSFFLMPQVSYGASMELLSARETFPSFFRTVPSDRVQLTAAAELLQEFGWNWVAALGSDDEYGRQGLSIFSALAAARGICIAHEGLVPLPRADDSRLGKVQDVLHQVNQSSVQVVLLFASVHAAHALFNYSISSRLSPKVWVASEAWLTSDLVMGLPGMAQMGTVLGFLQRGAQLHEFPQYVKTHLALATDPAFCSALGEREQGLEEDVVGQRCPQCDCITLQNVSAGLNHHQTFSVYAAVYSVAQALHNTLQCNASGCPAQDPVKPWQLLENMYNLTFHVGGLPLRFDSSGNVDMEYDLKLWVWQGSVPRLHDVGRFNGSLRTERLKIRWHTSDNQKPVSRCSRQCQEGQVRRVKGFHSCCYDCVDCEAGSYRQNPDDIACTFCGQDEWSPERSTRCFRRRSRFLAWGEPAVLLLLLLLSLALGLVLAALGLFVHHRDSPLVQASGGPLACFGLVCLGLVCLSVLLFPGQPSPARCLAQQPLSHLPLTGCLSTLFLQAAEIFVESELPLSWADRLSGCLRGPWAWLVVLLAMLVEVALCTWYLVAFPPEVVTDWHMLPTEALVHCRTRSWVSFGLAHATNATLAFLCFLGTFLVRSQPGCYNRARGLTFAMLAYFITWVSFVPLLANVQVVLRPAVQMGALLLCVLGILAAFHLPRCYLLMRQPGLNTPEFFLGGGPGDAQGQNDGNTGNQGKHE
In words: in vitro cell-based assay having cells that express the T1R umami taste receptor (enhancement of MSG). The conditions noted are these: for EC50: cells expressing T1R umami taste receptor, read-out: EC50 for enhancement of MSG binding. The protocol: Each of Compounds 101-183 was synthesized according to one of the general procedures set forth above in Examples 1. Thereafter, the compounds were tested in an in vitro cell-based assay having cells that express the T1R umami taste receptor. Dose-binding curves were recorded and the EC50 was determined for enhancement of MSG binding. Table 2 sets forth the calculated EC50 values for certain tested compounds as well as the MSG enhancement ratio at a particular concentration.

Take `COC(=O)[C@@H](CC(C)C)NC(=O)c1ccc(C)cc1` [Compound 101, Methyl (4-methylbenzoyl)-D-leucinate]: the EC50 was less than 2 µM.
On the same count and under the same terms, the same measure for `CCOC(=O)[C@@H](CC(C)C)NC(=O)c1ccc(C)cc1` [Compound 102, Ethyl (4-methylbenzoyl)-D-leucinate]: less than 2 µM.
As to `COC(=O)[C@H](CC(C)C)NC(=O)c1ccc(C)cc1` [Compound 103, Methyl (4-methylbenzoyl)-L-leucinate], the EC50 was greater than 50 µM. For the same compound, the “MSG Enh. Ratio” value (compound at 50 μM) is reported as 3.4 @.
`COC(=O)[C@H](Cc1ccccc1)NC(=O)c1ccc(C)cc1` [Compound 104, Methyl (4-methylbenzoyl)-L-phenylalaninate]: the EC50 was greater than 50 µM. Where the note is “compound at 10 μM”, the “MSG Enh. Ratio” value was 3.3 @.
On to `COC(=O)[C@H](Cc1ccccc1)NC(=O)c1ccc(OC)cc1` [Compound 105, Methyl (4-methoxybenzoyl)-L-phenylalaninate], for which the EC50 came to 36 µM. The “MSG Enh. Ratio” value (compound at 50 μM) was 6.5 @.
In the same order, the values of `CCOC(=O)[C@@H](NC(=O)c1ccc(OC)cc1)C(C)C` [Compound 106, Ethyl (4-methoxybenzoyl)-L-valinate] are 36 µM and 3.6 @.
On the same counts, the results for `COC(=O)[C@H](Cc1ccccc1)NC(=O)c1cccc(OC)c1` [Compound 107, Methyl (3-methoxybenzoyl)-L-phenylalaninate] are greater than 50 µM and 3.2 @.
In the same order, the values of `CCOC(=O)[C@@H](NC(=O)c1cccc(OC)c1)C(C)C` [Compound 108, Ethyl (3-methoxybenzoyl)-L-valinate] are greater than 50 µM and 2.7 @.
With `CCOc1ccc(C(=O)N[C@H](CC(C)C)C(=O)OC)cc1` [Compound 109, Methyl (4-ethoxybenzoyl)-D-leucinate], the EC50 is 0.7 µM.
For `CCOC(=O)[C@@H](NC(=O)c1ccc(COC)cc1)C(C)C` [Compound 110, Ethyl (4-(methoxymethyl)benzoyl)-L-valinate], the EC50 was greater than 50 µM. For the same compound, the “MSG Enh. Ratio” value (compound at 50 μM) is given as 2.7 @.
On the same counts, the results for `CCOC(=O)CC[C@H](NC(=O)c1ccc(C(C)C)cc1)C(=O)OCC` [Compound 111, Diethyl (4-isopropylbenzoyl)-L-glutamate] are 26 µM and 4.4 @.
In the same order, the values of `COC(=O)[C@H](Cc1ccccc1)NC(=O)c1ccccn1` [Compound 112, Methyl picolinoyl-L-phenylalaninate] are greater than 50 µM and 2.8 @.
Turning to `COC(=O)[C@@H](Cc1ccccc1)NC(=O)c1ccc(C)c(C)c1` [Compound 113, Methyl (3,4-dimethylbenzoyl)-D-phenylalaninate], the EC50 amounted to 0.3 µM.
Consider `COC(=O)[C@@H](CC(C)C)NC(=O)c1ccc(C)c(C)c1` [Compound 114, Methyl (3,4-dimethylbenzoyl)-D-leucinate], for which the EC50 was 0.7 µM.
On the same count and under the same terms, the same measure for `CCOC(=O)[C@@H](CC(C)C)NC(=O)c1ccc(C)c(C)c1` [Compound 115, Ethyl (3,4-dimethylbenzoyl)-D-leucinate]: 0.1 µM.
Consider `CCOC(=O)[C@H](CC(C)C)NC(=O)c1ccc(C)c(C)c1` [Compound 116, Ethyl (3,4-dimethylbenzoyl)-L-leucinate], for which the “MSG Enh. Ratio” value (compound at 3 μM) is listed as 3.7 @.
For `COC(=O)[C@@H](NC(=O)c1ccc(C)c(C)c1)C(C)C` [Compound 117, Methyl (3,4-dimethylbenzoyl)-L-valinate], the concentration for a half-maximal effect (EC50) is 11.1 µM. Further, the “MSG Enh. Ratio” value (compound at 3 μM) is 4.6 @.
Take `CCOC(=O)[C@@H](NC(=O)c1ccc(C)c(C)c1)C(C)C` [Compound 118, Ethyl (3,4-dimethylbenzoyl)-L-valinate]: the EC50 came to 4.8 µM. Where the note is “compound at 3 μM”, the “MSG Enh. Ratio” value is given as 7.0 @.
In the same order, the values of `COC(=O)[C@H](Cc1ccccc1)NC(=O)c1ccc(C)c(C)c1` [Compound 119, Methyl (3,4-dimethylbenzoyl)-L-phenylalaninate] are 8 µM and 4.6 @.
Turning to `CCOC(=O)[C@H](Cc1ccccc1)NC(=O)c1ccc(C)c(C)c1` [Compound 120, Ethyl (3,4-dimethylbenzoyl)-L-phenylalaninate], the EC50 was determined as 12 µM. In addition, under “compound at 10 μM”, the “MSG Enh. Ratio” value is 4.6 @.
In the same order, the values of `CCOC(=O)[C@H](Cc1ccc(OC)cc1)NC(=O)c1ccc(C)c(C)c1` [Compound 121, Ethyl (S)-2-(3,4-dimethylbenzamido)-3-(4-methoxyphenyl)propanoate] are 12 µM and 7.0 @.
For the compound `CCOC(=O)CC[C@H](NC(=O)c1ccc(C)c(C)c1)C(=O)OCC` [Compound 122, Diethyl (3,4-dimethylbenzoyl)-L-glutamate], the EC50 was found to be 2 µM. Under “compound at 3 μM”, the “MSG Enh. Ratio” value is listed as 4.9 @.
As for `COC(=O)[C@H](Cc1ccccc1)NC(=O)c1ccc(OC)c(OC)c1` [Compound 123, Methyl (3,4-dimethoxybenzoyl)-L-phenylalaninate], the EC50 is greater than 50 µM. Further, under “compound at 50 μM”, the “MSG Enh. Ratio” value is 2.5 @.
With `COC(=O)[C@@H](NC(=O)c1ccc(OC)c(OC)c1)C(C)C` [Compound 124, Methyl (3,4-dimethoxybenzoyl)-L-valinate], the EC50 was greater than 50 µM. The “MSG Enh. Ratio” value (compound at 50 μM) was 1.8 @.
On the same counts, the results for `CC[C@H](C)[C@H](NC(=O)c1ccc(OC)c(OC)c1)C(=O)OC` [Compound 125, Methyl (3,4-dimethoxybenzoyl)-L-isoleucinate] are greater than 50 µM and 2.7 @.
Take `CCOC(=O)CC[C@H](NC(=O)c1cc(OC)cc(OC)c1)C(=O)OCC` [Compound 126, Diethyl (3,5-dimethoxybenzoyl)-L-glutamate]: the “MSG Enh. Ratio” value (compound at 50 μM) is reported as 5.2 @.
Regarding `COC(=O)[C@@H](NC(=O)c1ccc2c(c1)OCO2)C(C)C` [Compound 127, Methyl (benzo[d][1,3]dioxole-5-carbonyl)-L-valinate], the EC50 was greater than 50 µM. Also, the “MSG Enh. Ratio” value (compound at 50 μM) is 3.4 @.
With `COC(=O)[C@H](Cc1ccccc1)NC(=O)c1ccc2c(c1)OCO2` [Compound 128, Methyl (benzo[d][1,3]dioxole-5-carbonyl)-L-phenylalaninate], the EC50 was greater than 50 µM. Moreover, the “MSG Enh. Ratio” value (compound at 10 μM) is listed as 3.7 @.
As to `CCOC(=O)CC[C@H](NC(=O)c1ccc2c(c1)OCO2)C(=O)OCC` [Compound 129, Diethyl (benzo[d][1,3]dioxole-5-carbonyl)-L-glutamate], the EC50 turned out to be 12 µM. In addition, the “MSG Enh. Ratio” value (compound at 3 μM) is listed as 7.5 @.
Take `CCOC(=O)[C@@H](CC(C)C)NC(=O)c1ccc2c(c1)OCO2` [Compound 130, Ethyl (benzo[d][1,3]dioxole-5-carbonyl)-D-leucinate]: the EC50 turned out to be 0.5 µM.
Consider `CCOC(=O)CC[C@H](NC(=O)c1ccc(C)c(C)n1)C(=O)OCC` [Compound 131, Diethyl (5,6-dimethylpicolinoyl)-L-glutamate], for which the “MSG Enh. Ratio” value (compound at 50 μM) is 5.6 @.
Regarding `CCCCc1ccc(C(=O)N[C@@H](Cc2ccccc2)C(=O)OC)nc1` [Compound 132, Methyl (5-butylpicolinoyl)-L-phenylalaninate], the EC50 is greater than 50 µM. Besides, the “MSG Enh. Ratio” value (compound at 50 μM) is 2.6 @.
On the same counts, the results for `CCOC(=O)[C@@H](NC(=O)c1ccc2ccccc2n1)C(C)C` [Compound 133, Ethyl (quinoline-2-carbonyl)-L-valinate] are greater than 50 µM and 2.7 @.

These data come from US20250024871A1, “AMIDE COMPOUNDS AND THEIR USE AS FLAVOR MODIFIERS” (Firmenich Incorporated, priority 2021, published 2025).
